Values joined by “and” are separate entries in the source; they are usually repeats but may differ in a detail not shown here. Identical values can stand only once. Like-named read-outs stand apart in the source and are kept apart here.
How the values were obtained:
phospho-Rb (Ser 807/811) = assay: Endogenous phospho-Rb (Ser 807/811) Lumit immunoassay in MCF7 cells; format: cell-based, human; conditions: for Normalized pRB (%): Panel E;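 on all read-outs here: Serum-starved cells exposed to compounds for 24 h with 25 ng/mL hEGF, then lysed, phospho-Rb detected by split-luciferase antibody pair luminescence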
CDK12/Cyclin K = CDK12/Cyclin K (Homo sapiens, UniProt Q9NYV4); assay: NanoBRET live-cell target engagement, CDK12-NanoLuc/Cyclin K in HEK-293; format: binding; conditions: 10µM
CDK12/Cyclin K, sequence (Q9NYV4 1-1481 isoform Q9NYV4-2): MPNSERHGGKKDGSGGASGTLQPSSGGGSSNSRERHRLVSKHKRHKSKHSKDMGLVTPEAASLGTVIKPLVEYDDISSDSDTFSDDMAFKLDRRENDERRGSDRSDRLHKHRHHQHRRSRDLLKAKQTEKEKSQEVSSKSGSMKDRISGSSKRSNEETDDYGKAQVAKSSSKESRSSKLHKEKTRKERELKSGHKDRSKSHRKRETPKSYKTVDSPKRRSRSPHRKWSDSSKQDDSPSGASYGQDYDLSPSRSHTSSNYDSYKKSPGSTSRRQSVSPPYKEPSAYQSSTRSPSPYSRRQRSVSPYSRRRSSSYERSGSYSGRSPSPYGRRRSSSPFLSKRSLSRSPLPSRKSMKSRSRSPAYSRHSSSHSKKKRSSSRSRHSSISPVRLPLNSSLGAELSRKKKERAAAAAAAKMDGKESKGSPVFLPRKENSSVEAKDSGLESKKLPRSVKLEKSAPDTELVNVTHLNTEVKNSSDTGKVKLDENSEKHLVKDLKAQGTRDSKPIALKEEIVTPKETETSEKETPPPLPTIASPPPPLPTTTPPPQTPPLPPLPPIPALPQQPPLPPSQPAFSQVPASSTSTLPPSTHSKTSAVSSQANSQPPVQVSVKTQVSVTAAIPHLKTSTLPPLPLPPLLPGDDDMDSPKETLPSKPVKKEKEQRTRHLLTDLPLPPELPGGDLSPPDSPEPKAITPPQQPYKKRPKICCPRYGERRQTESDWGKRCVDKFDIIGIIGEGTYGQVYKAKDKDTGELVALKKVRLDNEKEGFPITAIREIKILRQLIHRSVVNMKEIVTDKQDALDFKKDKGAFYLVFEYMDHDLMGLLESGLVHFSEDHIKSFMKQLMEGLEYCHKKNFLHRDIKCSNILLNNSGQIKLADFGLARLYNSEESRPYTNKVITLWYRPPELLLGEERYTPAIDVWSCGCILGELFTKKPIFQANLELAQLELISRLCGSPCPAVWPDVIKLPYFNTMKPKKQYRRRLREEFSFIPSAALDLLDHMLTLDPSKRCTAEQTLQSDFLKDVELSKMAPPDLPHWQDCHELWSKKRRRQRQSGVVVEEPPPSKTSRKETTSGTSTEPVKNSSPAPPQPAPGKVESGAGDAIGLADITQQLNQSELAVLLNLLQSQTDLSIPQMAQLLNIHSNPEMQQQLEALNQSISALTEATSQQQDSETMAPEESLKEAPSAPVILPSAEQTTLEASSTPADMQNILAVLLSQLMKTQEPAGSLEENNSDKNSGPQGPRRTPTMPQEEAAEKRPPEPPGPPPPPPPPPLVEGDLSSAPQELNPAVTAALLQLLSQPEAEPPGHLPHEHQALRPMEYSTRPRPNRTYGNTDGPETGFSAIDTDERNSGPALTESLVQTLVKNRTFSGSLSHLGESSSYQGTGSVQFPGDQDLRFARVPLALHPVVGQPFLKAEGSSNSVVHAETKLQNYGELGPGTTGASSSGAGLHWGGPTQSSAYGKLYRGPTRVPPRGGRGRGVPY
CDK12/Cyclin K, sequence (O75909 whole entry partner): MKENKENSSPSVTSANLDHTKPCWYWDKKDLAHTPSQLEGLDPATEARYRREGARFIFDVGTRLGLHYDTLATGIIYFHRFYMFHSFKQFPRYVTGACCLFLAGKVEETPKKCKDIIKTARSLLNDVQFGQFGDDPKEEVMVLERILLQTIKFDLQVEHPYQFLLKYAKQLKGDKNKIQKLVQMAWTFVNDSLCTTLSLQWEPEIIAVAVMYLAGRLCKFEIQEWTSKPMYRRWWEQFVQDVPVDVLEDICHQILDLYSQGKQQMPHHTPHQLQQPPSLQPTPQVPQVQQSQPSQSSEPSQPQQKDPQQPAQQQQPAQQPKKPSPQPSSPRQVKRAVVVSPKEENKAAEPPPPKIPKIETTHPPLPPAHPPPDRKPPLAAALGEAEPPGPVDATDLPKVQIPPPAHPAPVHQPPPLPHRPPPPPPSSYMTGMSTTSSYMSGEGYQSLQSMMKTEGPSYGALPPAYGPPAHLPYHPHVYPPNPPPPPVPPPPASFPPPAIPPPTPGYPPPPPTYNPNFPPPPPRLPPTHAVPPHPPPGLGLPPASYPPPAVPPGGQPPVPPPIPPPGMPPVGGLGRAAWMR

CDK3/Cyclin E1 = CDK3/Cyclin E1 (Homo sapiens, UniProt Q00526); assay: NanoBRET live-cell target engagement, CDK3-NanoLuc/Cyclin E1 in HEK-293; format: binding
CDK3/Cyclin E1, sequence (Q00526 whole entry): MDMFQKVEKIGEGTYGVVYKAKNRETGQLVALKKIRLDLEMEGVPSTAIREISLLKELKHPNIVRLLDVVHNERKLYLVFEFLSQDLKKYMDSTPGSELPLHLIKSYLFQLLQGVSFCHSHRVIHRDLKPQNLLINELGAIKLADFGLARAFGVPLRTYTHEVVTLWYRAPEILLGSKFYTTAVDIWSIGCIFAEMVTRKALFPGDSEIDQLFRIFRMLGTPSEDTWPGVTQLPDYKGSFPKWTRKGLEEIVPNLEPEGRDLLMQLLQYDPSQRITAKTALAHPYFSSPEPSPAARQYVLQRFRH
CDK3/Cyclin E1, sequence (P24864 whole entry partner): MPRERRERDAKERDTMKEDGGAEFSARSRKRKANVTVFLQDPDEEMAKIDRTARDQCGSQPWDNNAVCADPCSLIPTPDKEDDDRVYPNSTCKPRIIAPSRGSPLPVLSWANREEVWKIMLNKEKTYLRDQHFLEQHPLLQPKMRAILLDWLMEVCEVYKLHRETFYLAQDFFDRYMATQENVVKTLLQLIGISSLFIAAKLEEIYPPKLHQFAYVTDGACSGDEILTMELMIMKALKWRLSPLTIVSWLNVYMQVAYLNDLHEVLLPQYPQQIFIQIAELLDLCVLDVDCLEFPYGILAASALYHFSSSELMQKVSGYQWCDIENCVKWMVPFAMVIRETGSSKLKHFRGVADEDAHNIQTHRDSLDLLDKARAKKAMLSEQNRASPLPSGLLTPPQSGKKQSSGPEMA

all 21 human CDKs = assay: Live-cell selectivity profile across all 21 CDK/cyclin complexes in HEK-293; format: binding; conditions: live HEK-293; for IC50: remaining CDK family, read-out: Collateral CDK (potency)
[1] = CDK12/K, average of replicates, read-out: Inhibition at 10µM (%) Average
[2] = CDK12/K, read-out: Inhibition at 10µM (%) Replicate 1
[3] = CDK12/K, read-out: Inhibition at 10µM (%) Replicate 2
[4] = CDK3/E1, average of replicates, read-out: Inhibition at 10µM (%) Average
[5] = CDK3/E1, read-out: Inhibition at 10µM (%) Replicate 1
[6] = CDK3/E1, read-out: Inhibition at 10µM (%) Replicate 2
[7] = read-out: Inhibition at 10µM (%) Average, CDK12/K, average of replicates
[8] = read-out: Inhibition at 10µM (%) Replicate 1, CDK12/K
[9] = read-out: Inhibition at 10µM (%) Replicate 2, CDK12/K

CCN1CCN(Cc2ccc(Nc3ncc(F)c(-c4cc(F)c5nc(C)n(C(C)C)c5c4)n3)nc2)CC1 [Abemaciclib]
IC50 (phospho-Rb (Ser 807/811); Homo sapiens, MCF7 cells, Panel F pIC50 correlations): 0.0457 µM | Normalized pRB (%) (phospho-Rb (Ser 807/811); LOG10([Compound]) (LOG10(µM)) 0.0457575): 13.6% and 13.3% | Normalized pRB (%) (phospho-Rb (Ser 807/811); LOG10([Compound]) (LOG10(µM)) 0.522879): 24.5% and 23.6% and 23.2% | Normalized pRB (%) (phospho-Rb (Ser 807/811); LOG10([Compound]) (LOG10(µM)) 1): 20.9% and 22.5% and 21.5% | Normalized pRB (%) (phospho-Rb (Ser 807/811); LOG10([Compound]) (LOG10(µM)) -0.431364): 18% and 19.1% and 18.8% | Normalized pRB (%) (phospho-Rb (Ser 807/811); LOG10([Compound]) (LOG10(µM)) -0.908485): 36.6% and 37.6% and 36.8% | Normalized pRB (%) (phospho-Rb (Ser 807/811); LOG10([Compound]) (LOG10(µM)) -1.38561): 61.8% and 62.2% and 61% | Normalized pRB (%) (phospho-Rb (Ser 807/811); LOG10([Compound]) (LOG10(µM)) -1.86273): 80.7% and 77.6% and 81.4% | Normalized pRB (%) (phospho-Rb (Ser 807/811); LOG10([Compound]) (LOG10(µM)) -2.33985): 90.7% and 95% and 86.6% | Normalized pRB (%) (phospho-Rb (Ser 807/811); LOG10([Compound]) (LOG10(µM)) -2.81697): 91.8% and 94.4% and 95% | Normalized pRB (%) (phospho-Rb (Ser 807/811); LOG10([Compound]) (LOG10(µM)) -3.29409): 93.5% and 103% and 101.1% | inhibition at 10 µM (CDK12/Cyclin K; [1]): 11.6% | inhibition at 10 µM (CDK12/Cyclin K; [2]): 10.3% | inhibition at 10 µM (CDK12/Cyclin K; [3]): 12.8% | inhibition at 10 µM (CDK3/Cyclin E1; [4]): 62.2% | inhibition at 10 µM (CDK3/Cyclin E1; [5]): 62.2% | inhibition at 10 µM (CDK3/Cyclin E1; [6]): 62.3%

COc1cc(F)ccc1-c1ncnc(Nc2cccc(C[S@](C)(=N)=O)c2)n1 [Atuveciclib]
inhibition at 10 µM (CDK12/Cyclin K; [7]): 8.2% | inhibition at 10 µM (CDK12/Cyclin K; [8]): 3% | inhibition at 10 µM (CDK12/Cyclin K; [9]): 13.3% | IC50 (all 21 human CDKs): > 1 µM | inhibition at 10 µM (CDK3/Cyclin E1; [4]): 48.4% | inhibition at 10 µM (CDK3/Cyclin E1; [5]): 47.3% | inhibition at 10 µM (CDK3/Cyclin E1; [6]): 49.6%

CCCCOc1c(C(=O)c2c(F)cc(C)cc2F)c[nH]c2nncc1-2 [BMS-265246]
inhibition at 10 µM (CDK12/Cyclin K; [1]): 5.2% | inhibition at 10 µM (CDK12/Cyclin K; [2]): 12.3% | inhibition at 10 µM (CDK12/Cyclin K; [3]): -1.9% | selectivity index for CDK8/19 over CDK1/2 (all 21 human CDKs): > 10 fold | inhibition at 10 µM (CDK3/Cyclin E1; [4]): 74% | inhibition at 10 µM (CDK3/Cyclin E1; [5]): 81.9% | inhibition at 10 µM (CDK3/Cyclin E1; [6]): 66% | IC50 (CDK3/Cyclin E1; CDK3/E1, read-out: IC50 (nM) Replicate 1): 6.5 nM | IC50 (CDK3/Cyclin E1; CDK3/E1, read-out: IC50 (nM) Replicate 2): 14 nM | IC50 (CDK3/Cyclin E1; CDK3/E1, read-out: IC50 (nM) Replicate 3): 9.2 nM | IC50 (CDK3/Cyclin E1; live HEK-293, 2 h, mean ± S.E.M. (n=3) or mean (n=2), read-out: IC50 for CDK/cyclin complexes, CDK3/E1): 10 nM

CC(C)c1cnn2c(NCc3ccccc3)cc(NCCCCCCN)nc12 [BS-181]
inhibition at 10 µM (CDK12/Cyclin K; [7]): 25.8% | inhibition at 10 µM (CDK12/Cyclin K; [8]): 20.3% | inhibition at 10 µM (CDK12/Cyclin K; [9]): 31.4% | IC50 (all 21 human CDKs): > 1 µM | inhibition at 10 µM (CDK3/Cyclin E1; [4]): 58.3% | inhibition at 10 µM (CDK3/Cyclin E1; [5]): 56.9% | inhibition at 10 µM (CDK3/Cyclin E1; [6]): 59.7%

From publication PMC7265341, “Quantifying CDK inhibitor selectivity in live cells” (Nature Communications, 2020)
